Results as given in patent US20240238423A9, “TETRAHYDROISOQUINOLINE HETEROBIFUNCTIONAL BCL-XL DEGRADERS” (Treeline Biosciences, Inc., priority 2022, published 2024).
Read-outs that look alike come from different tables or passages of the source.

Target: T1, Human BCL-XL protein (N-terminal HiBiT tagged BCL-XL in HT1080 cells) (Homo sapiens, UniProt Q07817)
T1 construct: expressed in transfected cells; host or cells: HT-1080 (ATCC CCL-121), stably transduced with lentivirus pLV-UBC-N-HiBiT-BCL-XL-PGK-puro and selected with puromycin
Assay: HiBiT based degradation assay
Format: cell-based
Conditions: HT1080 cells expressing HiBiT-BCL-XL; for Ymin (24 h) / Ymin (6 h): BCL-XL degradation normalized with DMSO control; for DC50: BCL-XL degradation
Summary of the method: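 This HiBiT degradation assay measured loss of BCL-XL in HT1080 cells that stably express an N-terminal HiBiT-BCL-XL fusion delivered by lentivirus. Cells were added to compound-spotted 384-well plates, and luminescence was read on a PHERAstar FSX reader. Signal was expressed relative to DMSO controls, curves were fitted by four-parameter logistic regression, and for hook-shaped curves the Ymin point served as the bottom plateau when calculating EC50.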

T1 sequence (Q07817 whole entry): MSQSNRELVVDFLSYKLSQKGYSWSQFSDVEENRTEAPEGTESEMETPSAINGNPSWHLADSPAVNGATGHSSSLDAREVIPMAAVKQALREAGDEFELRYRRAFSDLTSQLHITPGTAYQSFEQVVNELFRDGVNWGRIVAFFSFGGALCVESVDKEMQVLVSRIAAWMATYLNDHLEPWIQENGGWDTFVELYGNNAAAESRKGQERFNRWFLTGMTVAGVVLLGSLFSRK

SMILES | Ymin (24 h) | DC50 (24 h, read-out: EC50 (24 h)) | Ymin (6 h) | DC50 (6 h, read-out: EC50 (6 h))
Cc1c(OCCCC2CCN([C@H](C)C(=O)Nc3cccc4c(C5CCC(=O)NC5=O)nn(C)c34)CC2)cccc1-c1ccc(N2CCc3cccc(C(=O)Nc4nc5ccccc5s4)c3C2)nc1C(=O)O (stereo partly drawn) [Compound 216b, 6-(8-(benzo[d]thiazol-2-ylcarbamoyl)-3,4-dihydroisoquinolin-2(1H)-yl)-3-(3-(3-(1-((2R)-1-((3-(2,6-dioxopiperidin-3-yl)-1-methyl-1H-indazol-7-yl)amino)-1-oxopropan-2-yl)piperidin-4-yl)propoxy)-2-methylphenyl)picolinic acid] | B (50% ≤ Ymin < 70%) | < 100 nM | – | –
Cc1c(OCCCCCCCCN2CCN(c3cccc4c(C5CCC(=O)NC5=O)nn(C)c34)CC2)cccc1-c1ccc(N2CCc3cccc(C(=O)Nc4nc5ccccc5s4)c3C2)nc1C(=O)O (stereo not shown) [Compound 217, 6-[8-(1,3-benzothiazol-2-ylcarbamoyl)-3,4-dihydro-1H-isoquinolin-2-yl]-3-[3-[8-[4-[3-(2,6-dioxo-3-piperidyl)-1-methyl-indazol-7-yl]piperazin-1-yl]octoxy]-2-methyl-phenyl]pyridine-2-carboxylic acid] | B (50% ≤ Ymin < 70%) | < 100 nM | B (50% ≤ Ymin < 70%) | < 100 nM
Cc1c(O[C@H]2CC[C@H](CCCCN3CC[C@@H](c4ccc5c(C6CCC(=O)NC6=O)nn(C)c5c4)C3)CC2)cccc1-c1ccc(N2CCc3cccc(C(=O)Nc4nc5ccccc5s4)c3C2)nc1C(=O)O (single isomer, unassigned) [Compound 332b] | A (Ymin < 50%) | < 100 nM | – | –
Cc1c(O[C@H]2CC[C@H](CCC[C@@H](C)N3CCN(c4cccc5c(C6CCC(=O)NC6=O)nn(C)c45)CC3)CC2)cccc1-c1ccc(N2CCc3cccc(C(=O)Nc4nc5ccccc5s4)c3C2)nc1C(=O)O (single isomer, unassigned) [Compound 349b] | A (Ymin < 50%) | < 100 nM | – | –
Cc1c(-c2ccc(N3CCc4cccc(C(=O)Nc5nc6ccccc6s5)c4C3)nc2C(=O)NCCCCCCCC(=O)Nc2cccc3c(C4CCC(=O)NC4=O)nn(C)c23)cnn1CC12CC3CC(CC(C3)C1)C2 (stereo not shown) [Compound 114, 2-[5-[1-(1-adamantylmethyl)-5-methyl-pyrazol-4-yl]-6-[[8-[[3-(2,6-dioxo-3-piperidyl)-1-methyl-indazol-7-yl]amino]-8-oxo-octyl]carbamoyl]-2-pyridyl]-N-(1,3-benzothiazol-2-yl)-3,4-dihydro-1H-isoquinoline-8-carboxamide] | – | – | A (Ymin < 50%) | < 100 nM
Cc1c(O[C@H]2CC[C@H](CCN3CCN(c4cccc5c(C6CCC(=O)NC6=O)nn(C)c45)CC3)CC2)cccc1-c1ccc(N2CCc3cccc(C(=O)Nc4nc5ccccc5s4)c3C2)nc1C(=O)O (stereo partly shown) [Compound 215a, 6-(8-(benzo[d]thiazol-2-ylcarbamoyl)-3,4-dihydroisoquinolin-2(1H)-yl)-3-(3-(((1r,4r)-4-(2-(4-(3-(2,6-dioxopiperidin-3-yl)-1-methyl-1H-indazol-7-yl)piperazin-1-yl)ethyl)cyclohexyl)oxy)-2-methylphenyl)picolinic acid] | C (Ymin ≥ 70%) | < 100 nM | – | –
Cc1c(Oc2ccc(CCCC(=O)N3CCN(c4cccc5c(C6CCC(=O)NC6=O)nn(C)c45)CC3)cc2)cccc1-c1ccc(N2CCc3cccc(C(=O)Nc4nc5ccccc5s4)c3C2)nc1C(=O)O (stereo not shown) [Compound 191, 6-(8-(benzo[d]thiazol-2-ylcarbamoyl)-3,4-dihydroisoquinolin-2(1H)-yl)-3-(3-(4-(4-(4-(3-(2,6-dioxopiperidin-3-yl)-1-methyl-1H-indazol-7-yl)piperazin-1-yl)-4-oxobutyl)phenoxy)-2-methylphenyl)picolinic acid] | B (50% ≤ Ymin < 70%) | < 100 nM | – | –
